Experimental data published in patent US9480662B1 (priority 2015, dated 2016).

Legend:
[1] = Plasma analysis and pharmacokinetics after intravaginal administration
Experimental: The low dose of 1 mg represents the largest potential human dose on an mg/kg basis. The high dose of 20 mg represents the largest potential total human dose unadjusted for body weight.
Pharmacokinetic parameters were determined by non-compartmental methods using Phoenix™ WinNonlin® (Version 6.3.0) Model: Plasma Data, Extravascular Administration for individual serial sample collection data (Pharsight Corporation). Area under the curve values were calculated using the linear trapezoidal rule with linear interpolation. […] Nominal sample collection time was used for the analysis unless the actual sample collection time exceeded the allowable collection window for the respective time; in which case, the actual sample collection time was used. Pharmacokinetic parameter data manipulation was performed using Excel 2010 (Microsoft Corporation).
Pharmacokinetic parameters determined were defined as follows: • Cmax: Maximum observed concentration occurring at Tmax. Tmax: Time of maximum observed concentration. • AUC0-t: Area under the curve from the time of dosing to the time of the last observation.

[2] = oral, cited from earlier work
[3] = test system: postmenopausal hysterectomized patients with atrophic vaginitis; test: Pilot study of tamoxifen citrate vaginal suppository: vaginal pH; assay type: in vivo, human
Experimental: (§1) Methodology. Open-label prospective cohort study. Postmenopausal women with atrophic vaginitis were confirmed by vaginal pH. At baseline, vaginal pH and measure of their subjective vaginal dryness based on a VAS vaginal dryness. Four subjects were treated with vaginal suppositories of tamoxifen citrate for three months. After eight weeks of treatment, subjects had pharmacokinetic studies of the vaginal suppository.
(§2) Research Design. Healthy women with atrophic vaginitis were recruited to this study. To be eligible to enroll in the study, subjects underwent one screening visit. This visit was to determine the subject's vaginal pH and to measure of their subjective vaginal dryness based on a VAS. Once the subject met eligibility criteria, they received study medication.
(§3) Subjects received supplies of the study drug every six weeks.
(§4) Duration of Treatment. Participants were given the vaginal suppository every day for one week and then two times per week thereafter for 3 months. They were told how to insert the test drug (using the applicator, place the study drug deep into the vagina) and the dosing schedule.
(§5) Statistical Methods. The primary endpoints are changes in the self-assessment of vaginal dryness and vaginal pH defined as the difference between the baseline and the 3-month measurements. Descriptive statistics provided for the continuous study endpoints will include mean, median, standard deviation, and 95% confidence intervals. Descriptive statistics provided for categorical endpoints will include frequencies, percents, and 95% confidence intervals. Missing values of a variable will be imputed using the last observed value for the participant. Descriptive statistics will be provided with and without imputation of missing values.

[4] = test system: postmenopausal hysterectomized patients with atrophic vaginitis; test: Pilot study of tamoxifen citrate vaginal suppository: self-assessment of vaginal dryness (VAS); assay type: in vivo, human
Experimental: as §1, §2, §3, §4, §5

female rabbits = test: 28-day intravaginal irritation study, modified Draize vaginal scoring; assay type: in vivo, New Zealand White rabbit
Experimental: The testing was conducted following once daily intravaginal administration to female rabbits for 28 days to provide evaluation of the reversibility, progression, or delayed appearance of any observed changes following a 14-day postdose observation period. The animal model most commonly used to evaluate safety of vaginally administered products is the rabbit and the ovariectomized rat. However, the rabbit is considered the more sensitive model, and thus, was selected for this study.
Assessment of toxicity and/or irritation was based on mortality, clinical observations, vaginal irritation scores, body weight, physical examinations; clinical pathology, anatomic pathology, and histopathological grading of vaginal tissues. Treatment-related microscopic findings occurred in the proximal, mid, and distal vagina.
A total of 26 female experimentally naïve New Zealand White Hra:(NZW)SPF albino rabbits (approximately 7.5 months of age at receipt) were received from Covance Research Products, Greenfield, Ind. During the 9-day acclimation period, the animals were observed daily with respect to general health and any signs of disease.
The vaginal region of the animals was evaluated for signs of irritation using a modified Draize scoring system as presented in the following table. Evaluations were conducted prior to each daily dose and daily during the recovery period. Any abnormalities observed during this examination were documented as a detailed clinical observation. A score of “1” or above was confirmed by a member of the veterinary staff.

[5] = test system: postmenopausal hysterectomized patients with atrophic vaginitis; details: 3 months of vaginal suppository, 4 patients
Experimental: The primary efficacy endpoints were normalization of vaginal pH and improvement in vaginal dryness symptom. Safety assessments consisted of monitoring and recording all adverse events and serious adverse events. […] The blood tests were measured after 5 hours after vaginal administration.

[6] = Day 28, 1 and 20 mg/mL groups, female rabbits
[7] = female, New Zealand White, rabbit, in vivo
[8] = 20 mg vaginal suppository daily for one week then twice per week, month 3, 4 subjects
[9] = 20 mg vaginal suppository, month 3 versus enrollment, negative = decrease
[10] = baseline before treatment, 4 subjects

**Q.** For `CCC(=C(c1ccc(O)cc1)c1ccc(OCCN(C)C)cc1)c1ccccc1` [4-Hydroxytamoxifen], which “Ratio of high to low mean values, AUC0-t/Dose” value [1, 6] is on record?
**A.** Its value is 3.16.

**Q.** And the “Ratio of high to low mean values, Cmax/Dose” value [1, 6]?
**A.** Its value is 4.24.

**Q.** What about the “Ratio of mean metabolite to Tamoxifen AUC0-t values” ([1]; Day 28, High Dose 20 mg/mL, female rabbits) of the same molecule?
**A.** Its value is 0.148.

**Q.** What about the “Ratio of mean metabolite to Tamoxifen AUC0-t values” ([1]; Day 28, Low Dose 1 mg/mL, female rabbits) of the same molecule?
**A.** The value was 0.0702.

**Q.** And the “Median Tmax, range over dose groups” value ([1]; rabbit, in vivo)?
**A.** The value was 1 to 8 h.

**Q.** With `CC/C(=C(\c1ccccc1)c1ccc(OCCNC)cc1)c1ccccc1` [N-Desmethyltamoxifen] as the molecule, how does the “Tmax (median)” value ([1]; rabbit, in vivo) read?
**A.** The value was 1 h.

**Q.** Which results are given for `CC/C(=C(\c1ccccc1)c1ccc(OCCN(C)C)cc1)c1ccccc1` [Tamoxifen, 1-(p-dimethylamino-ethoxphenyl)-2-ethyl-1,2-diphenylethylene, reference compound]?
**A.** Mean AUC0-t, range over dose groups [1, 7]: 8.85 to 26.5 ng·h/mL; Mean Cmax, range over dose groups [1, 7]: 0.824 to 2.33 ng/mL; Tmax ([1]; female, New Zealand White, rabbit, in vivo, Median Tmax, range over dose groups): 0.5 to 1 h; Tmax ([1]; female, New Zealand White, rabbit, in vivo, Tmax (median)): 1 h; time to steady state concentrations ([2]; after initiation of therapy): about 4 weeks; average steady state plasma concentration ([2]; once daily for 3 months): 122 ng/mL

**Q.** Which results are given for `CC/C(=C(\c1ccccc1)c1ccc(OCCN(C)C)cc1)c1ccccc1.O=C(O)CC(O)(CC(=O)O)C(=O)O` [tamoxifen citrate, (Z) 2-[4-(1,2-diphenyl-1-butenyl)phenoxy]-N, N-dimethylethanamine 2-hydroxy-1,2,3-propanetricarboxylate]?
**A.** pH Month 3, median [3, 8]: 5.0; vaginal pH, Paired Difference enrollment to month 3, median [3, 9]: −2.0; lowering of vaginal pH compared with conjugated estrogens ([3]; after 3 months, twice per week regimen): as effective as conjugated estrogens; pH Enrollment, median [3, 10]: 7.1; Vaginal Dryness Month 3, median (VAS) [4, 8]: 3.0; Vaginal Dryness, Paired Difference enrollment to month 3, median [4, 9]: −5.5; Vaginal Dryness Enrollment, median (VAS) [4, 10]: 8.0; vaginal irritation (erythema, edema scores) (female rabbits; 1 and 20 mg/mL intravaginal once daily, 28 days): no test article-related vaginal irritation; vaginal irritation during recovery period (female rabbits; 14-day recovery period): no signs of vaginal irritation; vaginal irritation compared with vehicle control (female rabbits; low and high doses (1 and 20 mg/mL), 28 days): did not appear to be any more irritating than the vehicle control; drop-outs, serious adverse events, deaths [5]: no patient drop-outs, serious adverse events, or deaths
